Experimental data taken from PubChem BioAssay (NCI).
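Method: 48-hour compound exposure of cells in 96-well plates, five concentrations, linear interpolation of endpoints. The concentration for 50% growth inhibition is given as GI50. At the TGI there is no net growth.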

What was measured:
Assay in all cases: growth of human tumour cells (NCI), 48 h; in the data active = GI50 below about 0.43 µM; inactive = the rest
[1] = system: NCI-H226 lung
[2] = system: M14 melanoma
[3] = system: NCI-H460 lung
[4] = system: MDA-MB-468 breast
[5] = system: SNB-75 CNS
[6] = system: SK-MEL-28 melanoma
[7] = system: EKVX NSCLC
[8] = system: SR leukemia
[9] = system: SK-OV-3 ovarian
[10] = system: MALME-3M melanoma
[11] = system: HS 578T breast
[12] = system: SW-620 colon
[13] = system: SF-268 CNS
[14] = system: NCI-H522 lung
[15] = system: DU-145 prostate
[16] = system: ACHN renal
[17] = system: RPMI-8226 leukemia
[18] = system: UO-31 renal
[19] = system: HOP-62 NSCLC
[20] = system: BT-549 breast
[21] = system: A549 NSCLC
[22] = system: HCT-116 colon
[23] = system: PC-3 prostate
[24] = system: OVCAR-8 ovarian
[25] = system: T-47D breast
[26] = system: K-562 leukemia
[27] = system: MOLT-4 leukemia
[28] = system: IGROV1 ovarian
[29] = system: COLO 205 colon
[30] = system: HT29 colon
[31] = system: SF-295 CNS
[32] = system: CAKI-1 renal
[33] = system: MCF7 breast
[34] = system: A498 renal
[35] = system: MDA-MB-231 breast
[36] = system: OVCAR-4 ovarian
[37] = system: RXF 393 renal
[38] = system: SN12C renal
[39] = system: 786-0 renal
[40] = system: SK-MEL-2 melanoma
[41] = system: HCT-15 colon
[42] = system: HL-60(TB) leukemia
[43] = system: U251 CNS
[44] = system: KM12 colon
[45] = system: MDA-MB-435
[46] = system: TK-10 renal
[47] = system: SK-MEL-5 melanoma
[48] = system: UACC-257 melanoma
[49] = system: SNB-19 CNS
[50] = system: LOX IMVI melanoma
[51] = system: NCI-H23 lung
[52] = system: UACC-62 melanoma
[53] = system: OVCAR-5 ovarian
[54] = system: HCC-2998 colon
[55] = system: OVCAR-3 ovarian
[56] = system: HOP-92 NSCLC
[57] = system: SF-539 CNS
[58] = system: CCRF-CEM leukemia

Cc1ccc(C(=O)Nc2cc(-n3ccnc3C)cc(C(F)(F)F)c2)cc1C#Cc1cnc2cccnn12
15.6 µM: TGI [29]
15 µM: TGI [17]
24.6 µM: TGI [44]
29.1 µM: TGI [55]
1730 nM: TGI [10]
active: GI50 [10] 250 nM | GI50 [26] 0.00293 µM | GI50 [35] 0.364 µM | GI50 [42] 0.257 µM | GI50 [44] 0.131 µM
inactive: GI50 [1] 1230 nM | GI50 [2] 924 nM | GI50 [3] 3.68 µM | GI50 [4] 6.89 µM | GI50 [5] 2980 nM | GI50 [6] 898 nM | GI50 [7] 6.85 µM | GI50 [8] 2.44 µM | GI50 [9] 5.64 µM | GI50 [11] 1120 nM | GI50 [12] 2.43 µM | GI50 [13] 4 µM | GI50 [14] 2740 nM | GI50 [15] 5.23 µM | GI50 [16] 2490 nM | GI50 [17] 1.27 µM | GI50 [18] 1.13 µM | GI50 [19] 1880 nM | GI50 [20] 3.4 µM | GI50 [21] 3.01 µM | GI50 [22] 1.31 µM | GI50 [23] 4.51 µM | GI50 [24] 3.49 µM | GI50 [25] 4.24 µM | GI50 [27] 2.42 µM | GI50 [28] 2620 nM | GI50 [29] 1700 nM | GI50 [30] 0.848 µM | GI50 [31] 3.13 µM | GI50 [32] 1.76 µM | GI50 [33] 5.06 µM | GI50 [34] 3.26 µM | GI50 [36] 4.51 µM | GI50 [37] 1.64 µM | GI50 [38] 948 nM | GI50 [39] 4.02 µM | GI50 [40] 840 nM | GI50 [41] 2.44 µM | GI50 [43] 4.23 µM | GI50 [45] 3.07 µM | GI50 [46] 4.27 µM | GI50 [47] 3.33 µM | GI50 [48] 1780 nM | GI50 [49] 6.09 µM | GI50 [50] 0.702 µM | GI50 [51] 1530 nM | GI50 [52] 756 nM | GI50 [53] 1270 nM | GI50 [54] 2550 nM | GI50 [55] 9.25 µM | GI50 [56] 0.918 µM | GI50 [57] 916 nM | GI50 [58] 3.45 µM
12.2 µM: TGI [51]
4.94 µM: TGI [30]
8.25 µM: TGI [22]
13.4 µM: TGI [43]
10.8 µM: TGI [3]
4.47 µM: TGI [6]
14.7 µM: TGI [45]
4 µM: TGI [57]
24.4 µM: TGI [2]
> 29.3 µM: TGI [7] | TGI [8] | TGI [12] | TGI [26] | TGI [27] | TGI [33] | TGI [41] | TGI [42] | TGI [58]
6.69 µM: TGI [16]
23.2 µM: TGI [28]
9.44 µM: TGI [14]
8.7 µM: TGI [31]
8.74 µM: TGI [5] | TGI [48]
4.62 µM: TGI [40]
16.4 µM: TGI [13]
11.9 µM: TGI [39]
6.47 µM: TGI [1]
19.1 µM: TGI [49]
11.1 µM: TGI [24]
14 µM: TGI [46]
12.6 µM: TGI [25]
8.39 µM: TGI [20]
16.3 µM: TGI [36]
23.1 µM: TGI [15]
9.67 µM: TGI [19]
15.3 µM: TGI [23]
6.17 µM: TGI [18]
11 µM: TGI [54]
9.74 µM: TGI [34]
6.52 µM: TGI [32]
8.81 µM: TGI [47]
19.7 µM: TGI [4]
4.13 µM: TGI [52]
6.11 µM: TGI [37]
13.5 µM: TGI [21]
4.35 µM: TGI [50]
14.9 µM: TGI [9]
7.31 µM: TGI [11]
8.91 µM: TGI [53]
5.97 µM: TGI [38]
4.61 µM: TGI [56]
3.2 µM: TGI [35]

O=C(/C=C/c1ccc(Br)cc1)c1nc2ccccc2n1Cc1ccc(Br)cc1
inactive: GI50 [1] > 100000 nM | GI50 [2] > 100000 nM | GI50 [3] 59.3 µM | GI50 [4] 35.9 µM | GI50 [5] > 100000 nM | GI50 [6] > 100000 nM | GI50 [7] > 100 µM | GI50 [8] 28 µM | GI50 [9] > 100 µM | GI50 [10] > 100000 nM | GI50 [11] > 100000 nM | GI50 [12] 30 µM | GI50 [13] > 100 µM | GI50 [14] > 100000 nM | GI50 [15] > 100 µM | GI50 [16] > 100000 nM | GI50 [17] 25.2 µM | GI50 [18] 45.9 µM | GI50 [19] > 100000 nM | GI50 [20] 96 µM | GI50 [21] > 100 µM | GI50 [22] 56.6 µM | GI50 [23] 58.6 µM | GI50 [24] 97.7 µM | GI50 [25] 24.7 µM | GI50 [26] 39.5 µM | GI50 [27] 17 µM | GI50 [28] > 100000 nM | GI50 [29] > 100000 nM | GI50 [30] 68.7 µM | GI50 [31] > 100 µM | GI50 [32] 53 µM | GI50 [33] 24.1 µM | GI50 [34] > 100 µM | GI50 [35] 99.1 µM | GI50 [36] > 100 µM | GI50 [37] 86.9 µM | GI50 [38] > 100000 nM | GI50 [39] > 100 µM | GI50 [40] > 100000 nM | GI50 [41] 40.5 µM | GI50 [42] 24.1 µM | GI50 [43] 42.6 µM | GI50 [44] 80.5 µM | GI50 [45] 35.6 µM | GI50 [46] > 100 µM | GI50 [47] > 100 µM | GI50 [48] > 100000 nM | GI50 [49] > 100 µM | GI50 [50] 30.9 µM | GI50 [51] > 100000 nM | GI50 [52] > 100000 nM | GI50 [53] > 100000 nM | GI50 [54] > 100000 nM | GI50 [55] 35 µM | GI50 [56] 58.6 µM | GI50 [57] > 100000 nM | GI50 [58] 18.2 µM
> 100000 nM: TGI [10]
> 100 µM: TGI [1] | TGI [2] | TGI [3] | TGI [4] | TGI [5] | TGI [6] | TGI [7] | TGI [8] | TGI [9] | TGI [11] | TGI [12] | TGI [13] | TGI [14] | TGI [15] | TGI [16] | TGI [17] | TGI [18] | TGI [19] | TGI [20] | TGI [21] | TGI [22] | TGI [23] | TGI [24] | TGI [25] | TGI [26] | TGI [27] | TGI [28] | TGI [29] | TGI [30] | TGI [31] | TGI [32] | TGI [33] | TGI [34] | TGI [35] | TGI [36] | TGI [37] | TGI [38] | TGI [39] | TGI [40] | TGI [41] | TGI [42] | TGI [43] | TGI [44] | TGI [45] | TGI [46] | TGI [47] | TGI [48] | TGI [49] | TGI [50] | TGI [51] | TGI [52] | TGI [53] | TGI [54] | TGI [55] | TGI [56] | TGI [57] | TGI [58]
